Data reported in BindingDB's records for doi:10.1016/j.bmcl.2015.04.102 (Arena Pharmaceuticals, 2015).
pIC50: −log10 of the molar value.

Experiment: Displacement of [3H]-Astemizole from human ERG

pIC50: < 3.00
SMILES: C[C@@H](OC(=O)N1CCC(O[C@H]2CC[C@H](Oc3cnc(S(C)(=O)=O)cn3)CC2)CC1)C(F)(F)F
